# Reference: PubChem BioAssay AID1963423 (Molecular Pharmacology Branch, DTP, NCI, 2024)
# Test system: 439559-082-T-J2-PDC complex spheroid growth
# Assay: Anticancer human tumor 439559-082-T-J2-PDC patient-derived colon adenocarcinoma cell line growth inhibition [Asc]
# Settings: for IC50: curve of first compound; for viability, T/C: stronger effect = lower value
# Outline: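 Stromal components (HUVEC and hMSC) are co-assembled with the cancer cells into multicellular spheroids. Drugs are then added singly or paired, at concentrations falling by half-log increments from a clinically achievable maximum, capped at 10 microM without known Cmax.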
# 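Note: spheroids exposed to agents for 7 days starting day 3 after seeding.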
# 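Throughout, for viability, T/C: percent of DMSO vehicle control viability with 100% = vehicle.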
smiles,measurement,setting,value
NC(=O)C(=Cn1cnc(-c2cc(C(F)(F)F)cc(C(F)(F)F)c2)n1)c1cncnc1 + Cc1c(S(C)(=O)=O)c(-c2cc(F)cc(N3CCN(c4ccc(NS(=O)(=O)c5ccc(NC(CCN6CCC(C(=O)OCCCP(=O)(O)O)CC6)CSc6ccccc6)c(S(=O)(=O)C(F)(F)F)c5)cc4)CC3)c2)c(-c2ccc(Cl)cc2)n1C(C)C,IC50,second compound 0.1 µM,> 300 nM
same,IC50,second compound 0.316 µM,> 300 nM
same,IC50,second compound 1 µM,> 300 nM
same,IC50,second compound 3.16 µM,> 300 nM
same,IC50,second compound 10 µM,> 300 nM
same,"viability, T/C","second compound 0.1 µM, first compound 0.000949 µM",92%
same,"viability, T/C","second compound 0.1 µM, first compound 0.003 µM",115%
same,"viability, T/C","second compound 0.1 µM, first compound 0.00949 µM",92.9%
same,"viability, T/C","second compound 0.1 µM, first compound 0.03 µM",87%
same,"viability, T/C","second compound 0.1 µM, first compound 0.0949 µM",82.7%
same,"viability, T/C","second compound 0.1 µM, first compound 0.3 µM",82.5%
same,"viability, T/C","second compound 0.316 µM, first compound 0.000949 µM",100%
same,"viability, T/C","second compound 0.316 µM, first compound 0.003 µM",101%
same,"viability, T/C","second compound 0.316 µM, first compound 0.00949 µM",94.9%
same,"viability, T/C","second compound 0.316 µM, first compound 0.03 µM",82.8%
same,"viability, T/C","second compound 0.316 µM, first compound 0.0949 µM",84.2%
same,"viability, T/C","second compound 0.316 µM, first compound 0.3 µM",75.5%
same,"viability, T/C","second compound 1 µM, first compound 0.000949 µM",92.8%
same,"viability, T/C","second compound 1 µM, first compound 0.003 µM",98.2%
same,"viability, T/C","second compound 1 µM, first compound 0.00949 µM",91.1%
same,"viability, T/C","second compound 1 µM, first compound 0.03 µM",78%
same,"viability, T/C","second compound 1 µM, first compound 0.0949 µM",75.7%
same,"viability, T/C","second compound 1 µM, first compound 0.3 µM",67.4%
same,"viability, T/C","second compound 3.16 µM, first compound 0.000949 µM",87%
same,"viability, T/C","second compound 3.16 µM, first compound 0.003 µM",93.8%
same,"viability, T/C","second compound 3.16 µM, first compound 0.00949 µM",94.7%
same,"viability, T/C","second compound 3.16 µM, first compound 0.03 µM",75.3%
same,"viability, T/C","second compound 3.16 µM, first compound 0.0949 µM",69.4%
same,"viability, T/C","second compound 3.16 µM, first compound 0.3 µM",64.5%
same,"viability, T/C","second compound 10 µM, first compound 0.000949 µM",76.3%
same,"viability, T/C","second compound 10 µM, first compound 0.003 µM",73.6%
same,"viability, T/C","second compound 10 µM, first compound 0.00949 µM",75%
same,"viability, T/C","second compound 10 µM, first compound 0.03 µM",63.8%
same,"viability, T/C","second compound 10 µM, first compound 0.0949 µM",54.8%
same,"viability, T/C","second compound 10 µM, first compound 0.3 µM",56.6%
C#Cc1c(F)ccc2cc(O)cc(-c3ncc4c(N5CC6CCC(C5)N6)nc(OCC56CCCN5CC(F)C6)nc4c3F)c12 (configuration not stated) + CNC(C)C(=O)NC1CN(S(=O)(=O)c2cccc(S(=O)(=O)N3CCC4CCC(C(=O)NC(c5ccccc5)c5ccccc5)N4C(=O)C(NC(=O)C(C)NC)C3)c2)CCC2CCC(C(=O)NC(c3ccccc3)c3ccccc3)N2C1=O,IC50,second compound 0.00316 µM,2000 nM
same,IC50,second compound 0.01 µM,2620 nM
same,IC50,second compound 0.0316 µM,1660 nM
same,IC50,second compound 0.1 µM,1910 nM
same,IC50,second compound 0.316 µM,1030 nM
same,IC50,second compound 1 µM,269 nM
same,"viability, T/C","second compound 0.00316 µM, first compound 0.0316 µM",103%
same,"viability, T/C","second compound 0.00316 µM, first compound 0.1 µM",76.9%
same,"viability, T/C","second compound 0.00316 µM, first compound 0.316 µM",66.3%
same,"viability, T/C","second compound 0.00316 µM, first compound 1 µM",58.9%
same,"viability, T/C","second compound 0.00316 µM, first compound 3.16 µM",46.9%
same,"viability, T/C","second compound 0.00316 µM, first compound 10 µM",38.9%
same,"viability, T/C","second compound 0.01 µM, first compound 0.0316 µM",104%
same,"viability, T/C","second compound 0.01 µM, first compound 0.1 µM",82%
same,"viability, T/C","second compound 0.01 µM, first compound 0.316 µM",66.1%
same,"viability, T/C","second compound 0.01 µM, first compound 1 µM",62.9%
same,"viability, T/C","second compound 0.01 µM, first compound 3.16 µM",48.5%
same,"viability, T/C","second compound 0.01 µM, first compound 10 µM",39.8%
same,"viability, T/C","second compound 0.0316 µM, first compound 0.0316 µM",95%
same,"viability, T/C","second compound 0.0316 µM, first compound 0.1 µM",94.3%
same,"viability, T/C","second compound 0.0316 µM, first compound 0.316 µM",66.8%
same,"viability, T/C","second compound 0.0316 µM, first compound 1 µM",54.9%
same,"viability, T/C","second compound 0.0316 µM, first compound 3.16 µM",50%
same,"viability, T/C","second compound 0.0316 µM, first compound 10 µM",37.5%
same,"viability, T/C","second compound 0.1 µM, first compound 0.0316 µM",91.8%
same,"viability, T/C","second compound 0.1 µM, first compound 0.1 µM",73.8%
same,"viability, T/C","second compound 0.1 µM, first compound 0.316 µM",65.8%
same,"viability, T/C","second compound 0.1 µM, first compound 1 µM",60.1%
same,"viability, T/C","second compound 0.1 µM, first compound 3.16 µM",45.3%
same,"viability, T/C","second compound 0.1 µM, first compound 10 µM",34.3%
same,"viability, T/C","second compound 0.316 µM, first compound 0.0316 µM",84.7%
same,"viability, T/C","second compound 0.316 µM, first compound 0.1 µM",78.5%
same,"viability, T/C","second compound 0.316 µM, first compound 0.316 µM",59.4%
same,"viability, T/C","second compound 0.316 µM, first compound 1 µM",51.4%
same,"viability, T/C","second compound 0.316 µM, first compound 3.16 µM",40%
same,"viability, T/C","second compound 0.316 µM, first compound 10 µM",30.1%
same,"viability, T/C","second compound 1 µM, first compound 0.0316 µM",66%
same,"viability, T/C","second compound 1 µM, first compound 0.1 µM",55.2%
same,"viability, T/C","second compound 1 µM, first compound 0.316 µM",50.7%
same,"viability, T/C","second compound 1 µM, first compound 1 µM",40%
same,"viability, T/C","second compound 1 µM, first compound 3.16 µM",29%
same,"viability, T/C","second compound 1 µM, first compound 10 µM",21.6%
